Assays:
Assay type in all cases: biochemical
[1] = tested on: plasma TTR tetramer (controls and TTR V30M carriers); conditions: human plasma (controls and V30M carriers pooled), 4 M urea IEF, relative to non-treated plasma of same donor
Method: The preparations were subjected to native PAGE (5% acrylamide) and the gel band containing TTR was excised and applied to an IEF gel (5% acrylamide). IEF was carried out in semi-denaturing conditions (4 M urea), containing 5% (v/v) ampholytes pH 4-6.5 (GE Healthcare), at 1200 V for 6 hours. Proteins were stained with Coomassie Blue, the gels were scanned and subjected to densitometry using the ImageQuant program (HP Scanjet 4470c, Hewlett Packard). […] A total of 12 plasma samples (5 controls and 7 carriers TTR V30M) were analyzed in 3 IEF gels. For each treatment condition, a minimum of 4 samples from different donors were processed. The ratio of TTR tetramer over Total TTR (TTR tetramer+monomer) was calculated for each plasma sample and represented in FIG. 2.
The increase of the tetramer/total TTR ratio induced by the treatment with test compounds was pooled for all samples and represented in Table 4 as % of stabilization. These values were calculated after normalizing the tetramer/total TTR ratio obtained for each sample, with the ratio obtained for the non-treated plasma of the corresponding individual donor as described below: % stabilization=100×((ratio sample−ratio nt)/ratio nt). Where “ratio sample” is tetramer/total TTR ratio in the presence of compound; and “ratio nt” is tetramer/total TTR ratio of non-treated plasma from same donor.

[2] = target: T1, Recombinant Y78F TTR protein (Homo sapiens, UniProt P02766, Y98F); assay: Kinetic turbidity assay of TTR fibril formation; conditions: Y78F TTR 0.4 mg/mL, RA=100*B/(A+B)
T1 construct: made in house
Method: Stocks of compounds assayed as inhibitors were dissolved in DMSO (spectrophotometry grade from Sigma) at 1.5 mM concentration. Working solutions were prepared by diluting the stock solution 1:4 in H2O/DMSO (2:1). In all cases, DMSO concentration was adjusted to 5% (v/v) in the final reaction assay mixture.
The assay comprises two stages, one stage where the Y78F protein is incubated together with the inhibitor during 30 minutes, and a second stage where fibril formation is induced by a change in pH and absorbance is measured along 1.5 h. Briefly, the assay was performed as follows:
First, the following solutions were prepared: Protein Y78F stock: 4 mg/mL in 20 mM phosphate, 100 mM KCl, pH 7.6. Incubation buffer: 10 mM phosphate, 100 mM KCl, 1 mM EDTA, pH 7.6. Dilution buffer: 400 mM sodium acetate, 100 mM KCl, 1 mM EDTA, pH 4.2.
Incubation buffer was then added up to a volume of 100 μL. The plate was incubated at 37° C. in a thermostated microplate reader with orbital shaking 15 s every minute for 30 min. A 100 μL portion of dilution buffer was dispensed to each well, and the mixture was incubated at 37° C. with shaking (15 s every min) in the microplate reader. Absorbance at 340 nm was monitored for 1.5 h at 1 min intervals. Data were collected and analyzed using Microsoft Excel software. All assays were done in duplicate.
After following the general procedure indicated above, time-course curves were obtained, from which the initial rates of fibril formation (V0) were calculated as the slopes of the linear increase of absorbance. […] Data were fitted to equation (1): V0=A+B*e^−C[I] (1), where V0 is the initial rate of fibril formation (in absorbance units per hour, Abs*h^−1), and [I] is the concentration of the inhibitor (μM). Adjustable parameters are A (Abs*h^−1), residual aggregation rate at high concentration of inhibitor; B (Abs*h^−1), amplitude or maximum decrease of initial rate of fibril formation; and C (μM^−1), the exponential constant. A+B is equal to the initial rate of fibril formation under the assay conditions in the absence of inhibitor. […]

[3] = target: T2, Recombinant V122I TTR protein (Homo sapiens, UniProt P02766, V142I); assay: End-point turbidity assay (72 h) with V122I TTR; conditions: V122I 0.4 mg/mL
T2 construct: made in house
Method: Recombinant V122I TTR protein, which is an amyloidogenic variation of human TTR associated with Familial Amyloid Cardiomyopathy (FAC), was produced by following the same procedure described for the Y78F variant used in Example 1. Plasmid DNA expressing the V122I mutant was prepared by site-directed mutagenesis as reported for Y78F in Dolado et al (supra). but using the following primers: 5′-[…]-3′ and 5′-[…]-3′.
This assay is used for TTR variants with lower amyloidegenicity than the Y78F variant when the kinetic turbidity assay is not sensitive enough for accurate measurements. The procedure followed to test the inhibitors by this end-point assay at 72 h is reported in Dolado et al, (supra). V122I TTR was incubated with the inhibitor under the same conditions described above for the kinetic turbidity assay (Example 1), using V122I protein at a concentration of 0.4 mg/mL and three different concentrations of inhibitor: […], corresponding to 0.5×[protein], 1×[protein], and 3×[protein]. After acid induction (addition of dilution buffer), samples were incubated without shaking for 72 h at 37° C. and then homogenized by mixing to resuspend any fibrils present. Turbidity was measured at 340 nm and normalized to amyloidogenesis in the absence of inhibitor.
The inhibitory potency of the tested compounds was evaluated as the percentage of absorvance reduction of the inhibitor-containing samples when compared with the inhibitor-free control sample.
% Fibril reduction=100×(1-turbidity sample/turbidity blank), where turbidity sample is the turbidity measured in the presence of inhibitor, and turbidity blank is that in the absence of inhibitor.

[4] = inhibitor 0.5x[protein] (3.6 microM)
[5] = inhibitor 1x[protein] (7.2 microM)
[6] = inhibitor 3x[protein] (21.8 microM)

Row | Compound | % stabilization (average +/− sem) of TTR tetramer [1] | RA (%) percentage of amyloidosis reduction (reduction of fibril formation rate at high inhibitor concentration) [2] | % Fibril Reduction [3, 4] | % Fibril Reduction [3, 5] | % Fibril Reduction [3, 6]
1 | Cc1ccc(C(=O)c2cc(O)c(O)c([N+](=O)[O-])c2)cc1 [Tolcapone, 3,4-dihydroxy-4′-methyl-5-nitrobenzophenone] | 29.9 +/− 7.64% | 85.8% | 79.3% | 84.3% | 100.0%
2 | O=C(O)c1cc(-c2ccc(F)cc2F)cc(I)c1O [Iododiflunisal] |  | 99.8% | 83.2% | 85.0% | 88.2%
3 | O=C(O)c1ccc2nc(-c3cc(Cl)cc(Cl)c3)oc2c1 [Tafamidis, 2-(3,5-dichlorophenyl)-1,3-benzoxazole-6-carboxylic acid] | 16.4 +/− 5.49% | 99% |  |  | 

Reference: patent US11564899B2, “Therapy for transthyretin-associated amyloidosis” (SOM INNOVATION BIOTECH, S.L., priority 2011, dated 2023)
